Measurements published in BindingDB's records for PubMed 2795469 (Ciba-Geigy, 1989).
pKi: −log10 of the molar value.

Target: Adenosine receptor A2a (Rattus norvegicus, UniProt P30543)
Sequence (P30543 whole entry): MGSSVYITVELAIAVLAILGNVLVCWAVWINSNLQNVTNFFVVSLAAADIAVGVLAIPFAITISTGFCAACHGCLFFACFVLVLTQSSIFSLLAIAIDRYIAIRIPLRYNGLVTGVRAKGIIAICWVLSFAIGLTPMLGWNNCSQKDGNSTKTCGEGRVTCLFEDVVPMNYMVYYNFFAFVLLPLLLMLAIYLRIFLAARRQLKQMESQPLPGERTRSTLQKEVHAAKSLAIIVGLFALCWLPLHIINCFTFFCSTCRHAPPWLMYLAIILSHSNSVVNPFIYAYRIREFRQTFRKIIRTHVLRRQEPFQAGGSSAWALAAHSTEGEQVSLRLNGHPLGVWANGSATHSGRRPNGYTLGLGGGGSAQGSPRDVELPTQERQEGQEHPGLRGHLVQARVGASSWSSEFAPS

Nc1nc(Nc2ccccc2)nc2c1ncn2[C@@H]1O[C@H](CO)[C@H](O)C1O (stereo partly specified) [(CV 1808) 2-(6-Amino-2-phenylamino-purin-9-yl)-5-hydroxymethyl-tetrahydro-furan-3,4-diol]
pKi: 6.94
